Source: US20250197379A1 (KHR Biotec GmbH, priority 2021, published 2025)

Key:
elF4A1 = target: T1, elF4A1 (Homo sapiens, UniProt P60842); experiment: Dual luciferase assay for cap dependent translation initiation (eIF4A); details: Biochemical and cell based activity
T1 construct: endogenous in cells; host or cells: HeLa
Protocol: Dual luciferase assay for Cap-dependent translation initiation was performed in HeLa cells transfected with pFR_HCV_xb. […] After incubation, Dual luciferase reporter assay was performed according to the manufacturer's instruction and the luminescence was measured using a multiplate reader. Data were normalized to cells transfected with the indicated mutant and exposed to DMSO for 24 h. DMSO-treated cells were set as 1. The bars represent mean±SD from 3 independent experiments. The dot plot indicate the value from each experiment.

In vitro DMPK: CLi Human = type: in vitro ADME
KRAS G12V = target: T2, KRAS G12V (Homo sapiens, UniProt P01116, G12V); experiment: NanoBiT assay for RAS activation (KRAS G12V); details: Biochemical and cell based activity
T2 construct: K, N and HRAS G12V (full length) was cloned with Xho I and Bgl I to LgBit; expressed in transfected cells; host or cells: HeLa
T2 sequence (P01116 1-188 isoform P01116-2 G12V): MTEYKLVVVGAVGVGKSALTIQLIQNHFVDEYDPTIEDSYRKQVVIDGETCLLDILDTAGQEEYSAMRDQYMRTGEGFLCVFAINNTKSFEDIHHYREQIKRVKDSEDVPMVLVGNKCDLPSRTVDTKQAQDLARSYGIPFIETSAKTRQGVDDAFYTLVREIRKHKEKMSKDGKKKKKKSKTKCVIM
Protocol: N-terminal LgBiT and C-terminal SmBiT construct was purchased from Promega and K, N and HRAS G12V (full length) was cloned with Xho I and Bgl I to LgBit and CRAF Ras binding domain (1-149) was cloned with EcoRI and Bgl II to SmBit. For transfections, 1 μg or 2 μg of (12 well/6 well) plasmids were transfected into cells with 0.5 mM of PEI reagent in 100 μl or 200 μl PBS. One day after transfection, cells were harvested and seeded into 96 well white plates (Greiner) or 384 well white plate (Greiner). After an additional day the medium was changed to serum free DMEM and the cells were incubated for 2 h with the compounds according to the invention. NanoGlo assay was performed according to the manufacturer's instructions. The luminescence was measured using Tecan infinite (Tecan).

T1 sequence (P60842 whole entry): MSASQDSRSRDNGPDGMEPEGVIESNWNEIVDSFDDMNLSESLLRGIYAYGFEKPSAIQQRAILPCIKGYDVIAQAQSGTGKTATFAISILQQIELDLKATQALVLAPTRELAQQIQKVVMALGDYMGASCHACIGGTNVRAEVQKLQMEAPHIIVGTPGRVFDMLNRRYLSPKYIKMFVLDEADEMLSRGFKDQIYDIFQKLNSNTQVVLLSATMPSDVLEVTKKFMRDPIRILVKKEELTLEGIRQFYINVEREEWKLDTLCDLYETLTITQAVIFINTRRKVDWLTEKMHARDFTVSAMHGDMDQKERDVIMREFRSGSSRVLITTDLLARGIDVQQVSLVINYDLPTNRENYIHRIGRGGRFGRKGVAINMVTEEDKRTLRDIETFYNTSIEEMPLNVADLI

IC50 (elF4A1) [nM]	IC50 (KRAS G12V) [nM]	Structure (SMILES)	CLi Human (In vitro DMPK: CLi Human) [µL/min/mg]
80	58	COc1cc(OC)c2c(c1)O[C@@]1(c3ccc(Cl)cc3)[C@H](c3cccc(F)c3)C[C@H](NC(=O)N3CCOCC3)[C@@]21O [Compound 19]	
25	24	COc1cc(OC)c2c(c1)O[C@@]1(c3ccc(C#N)cc3)[C@H](c3cccc(F)c3)C[C@H](NC(=O)N3CCC3)[C@@]21O [Compound 36]	
21	21	COc1cc(OC)c2c(c1)O[C@@]1(c3ccc(C#N)cc3)[C@H](c3cccc(F)c3)C[C@H](NC(=O)N3CCN(C)CC3)[C@@]21O [Compound 38]	
143	97	COc1cc(OC)c2c(c1)O[C@@]1(c3ccc(Cl)cc3)[C@H](c3cccc(F)c3)C[C@H](NC(=O)N3CCC(N(C)C)CC3)[C@@]21O [Compound 40]	
55	50	COc1cc(OC)c2c(c1)O[C@@]1(c3ccc(Cl)cc3)[C@H](c3cccc(F)c3)C[C@H](NC(=O)N3CC(N(C)C)C3)[C@@]21O [Compound 41]	
54	48	COc1cc(OC)c2c(c1)O[C@@]1(c3ccc(Cl)cc3)[C@H](c3cccc(F)c3)C[C@H](NC(=O)NCCO)[C@@]21O [Compound 42]	
80	57	COc1cc(OC)c2c(c1)O[C@@]1(c3ccc(Cl)cc3)[C@H](c3cccc(F)c3)C[C@H](NC(=O)N3CC4CCC(C3)N4C)[C@@]21O [Compound 43]	
22	41	COc1cc(OC)c2c(c1)O[C@@]1(c3ccc(C#N)cc3)[C@H](c3cccc(F)c3)C[C@H](NC(=O)N3CC4(COC4)C3)[C@@]21O [Compound 47]	

Structure (SMILES)	IC50 (elF4A1) [nM]	IC50 (KRAS G12V) [nM]	CLi Human (In vitro DMPK: CLi Human) [µL/min/mg]
COc1cc(OC)c2c(c1)O[C@@]1(c3ccc(Cl)cc3)[C@H](c3cccc(F)c3)C[C@H](NC(=O)N3CCN(C)CC3)[C@@]21O (single isomer, unassigned) [Compound 2]	84	79	5.5
COc1cc(OC)c2c(c1)O[C@@]1(c3ccc(Cl)cc3)[C@H](c3cccc(F)c3)C[C@H](NC(=O)N3CCCC3)[C@@]21O (single isomer, unassigned) [Compound 5]	60	95	
COc1cc(OC)c2c(c1)O[C@@]1(c3ccc(Cl)cc3)[C@H](c3cccc(F)c3)C[C@H](NC(=O)NC(C)C)[C@@]21O (single isomer, unassigned) [Compound 8]	120	78	31
CCN(CC)C(=O)N[C@H]1C[C@@H](c2cccc(F)c2)[C@]2(c3ccc(Cl)cc3)Oc3cc(OC)cc(OC)c3[C@]12O (single isomer, unassigned) [Compound 11]	75	94	
COc1cc(OC)c2c(c1)OC1(c3ccc(Cl)cc3)[C@@H](c3cccc(F)c3)CC(NC(=O)N(C)C)C21O (single isomer, unassigned) [Compound C2, reference compound]	63	55	290
COc1cc(OC)c2c(c1)O[C@@]1(c3ccc(C#N)cc3)[C@H](c3cccc(F)c3)C[C@H](NC(=O)N3CCOCC3)[C@@]21O [Compound 37]	24	19	64
COc1cc(OC)c2c(c1)O[C@@]1(c3ccc(Cl)cc3)[C@H](c3cccc(F)c3)C[C@H](NC(=O)N3CCS(=O)(=O)CC3)[C@@]21O [Compound 39]	39	32	
